Legend:
[1] = target: mGluR5 (UniProt P31424); test: MGluR5 receptor binding test ([3H]-M-MPEP displacement); design: species or system rat; settings: radioligand [3H]-M-MPEP (2 nM); species not given; read-out: mGlu5 Ki
Method: MGluR5 Receptor Binding Tests
Rat cerebro-cortical membrane preparation was used to determine the binding characteristics of reference compounds and novel compounds to the rat mGluR5. The A18 cell line expressing hmGluR5a (purchased from Euroscreen) was used to determine binding characteristics of the chemical compounds to the human mGluR5a receptor. As radioligand [3H]-M-MPEP (2 nM) was used. The nonspecific binding was determined in the presence of 10 μM M-MPEP.

[2] = target: T1, rat mGluR1 (Rattus norvegicus, UniProt P23385); test: MGluR1 receptor binding test ([3H]R214127 displacement); settings: rat cerebellar membrane; radioligand [3H]R214127 (3 nM); read-out: mGlu1 Ki
T1 construct: rat cerebellar membrane preparation was used; from tissue; host or cells: rat cerebellum (membrane preparation)
T1 sequence (P23385 19-1199): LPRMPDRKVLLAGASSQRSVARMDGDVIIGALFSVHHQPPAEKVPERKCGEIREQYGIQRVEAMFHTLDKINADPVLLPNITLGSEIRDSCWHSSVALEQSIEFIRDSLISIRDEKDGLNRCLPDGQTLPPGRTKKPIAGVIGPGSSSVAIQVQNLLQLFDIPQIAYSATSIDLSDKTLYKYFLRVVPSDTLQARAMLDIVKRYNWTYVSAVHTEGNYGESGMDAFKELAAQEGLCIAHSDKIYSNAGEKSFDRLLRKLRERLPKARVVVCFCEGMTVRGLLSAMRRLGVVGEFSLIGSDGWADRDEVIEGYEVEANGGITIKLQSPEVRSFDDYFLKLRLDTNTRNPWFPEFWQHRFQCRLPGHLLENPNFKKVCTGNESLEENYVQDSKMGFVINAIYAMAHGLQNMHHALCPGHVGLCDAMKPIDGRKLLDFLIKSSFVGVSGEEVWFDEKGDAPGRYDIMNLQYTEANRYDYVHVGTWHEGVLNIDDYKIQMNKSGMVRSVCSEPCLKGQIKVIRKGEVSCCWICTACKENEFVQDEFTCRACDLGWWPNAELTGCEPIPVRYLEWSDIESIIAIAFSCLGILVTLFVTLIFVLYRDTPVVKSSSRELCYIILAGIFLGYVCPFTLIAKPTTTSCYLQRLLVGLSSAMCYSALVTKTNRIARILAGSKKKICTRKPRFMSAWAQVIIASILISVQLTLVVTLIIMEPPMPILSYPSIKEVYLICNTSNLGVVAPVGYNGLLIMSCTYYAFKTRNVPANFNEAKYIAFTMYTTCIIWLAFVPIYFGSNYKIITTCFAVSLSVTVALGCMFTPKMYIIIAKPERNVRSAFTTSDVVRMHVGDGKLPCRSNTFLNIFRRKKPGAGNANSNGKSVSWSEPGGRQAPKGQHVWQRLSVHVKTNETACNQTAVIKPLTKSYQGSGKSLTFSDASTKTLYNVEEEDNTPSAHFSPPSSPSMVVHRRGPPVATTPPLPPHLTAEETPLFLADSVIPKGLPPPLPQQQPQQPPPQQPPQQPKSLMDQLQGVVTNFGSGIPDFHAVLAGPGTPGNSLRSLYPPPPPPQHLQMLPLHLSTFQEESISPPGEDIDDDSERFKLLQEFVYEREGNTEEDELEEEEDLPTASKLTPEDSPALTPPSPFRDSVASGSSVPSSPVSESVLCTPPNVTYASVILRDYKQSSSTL
Method: MGluR1 Receptor Binding Test
MGluR1 receptor binding testes were performed according to modified method of Lavreysen et al. (Mol. Pharm., 2003, 63, 1082). Based on the high homology between the human and rat mGluR1 receptors, rat cerebellar membrane preparation was used to determine the binding characteristics of reference compounds and novel compounds to the rat mGluR1. As radioligand [3H]R214127 (3 nM) was used and the nonspecific binding was determined in the presence of 1 μM of R214127.
IC-50 values were determined from displacement curves by nonlinear regression analysis and were converted by equation method of Cheng and Prusoff (Biochem. Pharmacol., 1973, 22, 3099) to Ki values.

CC(=O)Nc1ccc(S(=O)(=O)c2sc3ncccc3c2-c2ccc(Cl)cc2)cc1 [Compound 5]
Ki [1]: > 1.5 µM | Ki [2]: > 1.5 µM

O=S(=O)(Cc1ccccc1)c1sc2ncccc2c1-c1ccc(Cl)cc1 [Compound 17]
Ki [1]: 0.5 to 1.5 µM | Ki [2]: > 1.5 µM

CCCCS(=O)(=O)c1sc2ncccc2c1-c1ccc(Cl)cc1 [Compound 11]
Ki [1]: 0.5 to 1.5 µM | Ki [2]: > 1.5 µM

O=S(=O)(c1ccc(Cl)cc1Cl)c1sc2ncccc2c1-c1ccc(Cl)cc1 [Compound 33]
Ki [1]: 0.5 to 1.5 µM | Ki [2]: > 1.5 µM

O=S(=O)(c1ccc(-c2ccccc2)cc1)c1sc2ncccc2c1-c1ccc(Cl)cc1 [Compound 18]
Ki [1]: > 1.5 µM | Ki [2]: > 1.5 µM

Cc1nc(C)c(S(=O)(=O)c2sc3ncccc3c2-c2ccc(Cl)cc2)s1 [Compound 12]
Ki [1]: 0.5 to 1.5 µM | Ki [2]: > 1.5 µM

N#Cc1cc(F)cc(S(=O)(=O)c2sc3nc(F)ccc3c2-c2ccc(Cl)cc2)c1 [Compound 90, 2-(3-Cyano-5-fluoro-benzenesulfonyl)-3-(4-chloro-phenyl)-6-fluoro-thieno[2,3-b]pyridine]
Ki [1]: < 0.5 µM | Ki [2]: > 1.5 µM

Cc1cccc(-c2c(S(=O)(=O)c3cccc(C#N)c3)sc3ncccc23)c1 [Compound 53]
Ki [1]: < 0.5 µM | Ki [2]: 0.5 to 1.5 µM

COc1ccc(S(=O)(=O)c2sc3ncccc3c2-c2ccc(Cl)cc2)cc1F [Compound 91]
Ki [1]: < 0.5 µM | Ki [2]: 0.5 to 1.5 µM

O=S(=O)(c1cccc(Cl)c1)c1sc2ncccc2c1-c1ccc(Cl)cc1 [Compound 19]
Ki [1]: < 0.5 µM | Ki [2]: > 1.5 µM

[O-][S+](c1ccc(Cl)cc1)c1sc2ncccc2c1-c1ccc(Cl)cc1 (stereo not shown) [Compound 2]
Ki [1]: < 0.5 µM | Ki [2]: < 0.5 µM

N#Cc1cccc(S(=O)(=O)c2sc3ncccc3c2-c2cccc(Cl)c2)c1 [Compound 38]
Ki [1]: < 0.5 µM | Ki [2]: < 0.5 µM

CC1CCN(c2c(S(=O)(=O)c3cccc(C#N)c3)sc3ncccc23)CC1 [Compound 36, 2-(3-Cyano-benzenesulfonyl)-3-(4-methyl-piperidinyl)-thieno[2,3-b]pyridine]
Ki [1]: < 0.5 µM | Ki [2]: < 0.5 µM

O=S(=O)(c1ccc(F)cc1)c1sc2ncccc2c1-c1ccc(Cl)cc1 [Compound 3]
Ki [1]: < 0.5 µM | Ki [2]: > 1.5 µM
